Reference: PubChem BioAssay AID1963445 (Molecular Pharmacology Branch, DTP, NCI, 2024)
Where “and” joins values, the source holds several entries; their conditions need not be identical. Equal entries are not always repeated.

System: MCF7 complex spheroid growth, % test/control
Experiment: Anticancer human tumor MCF7 cell line growth inhibition [Asc];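 further: spheroids exposed to compounds for 7 days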;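 on viability, T/C: 100% = DMSO vehicle control wells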
Conditions: for viability, T/C: stronger effect = lower value; active means viability on the fitted dose curve at most 10% of control; inactive means the rest
Procedure, shortened: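 Stromal components (HUVEC and hMSC) are co-assembled with the cancer cells into multicellular spheroids. Drugs are then added singly or paired, at concentrations falling by half-log increments from a clinically achievable maximum, capped at 10 microM without known Cmax.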

[1] = curve of first compound, second compound 0.0316 µM
[2] = curve of first compound, second compound 0.1 µM
[3] = curve of first compound, second compound 0.316 µM
[4] = curve of first compound, second compound 1 µM
[5] = curve of first compound, second compound 3.16 µM
[6] = curve of first compound, second compound 10 µM
[7] = second compound 0.0316 µM, first compound 0.0316 µM
[8] = second compound 0.0316 µM, first compound 0.1 µM
[9] = second compound 0.0316 µM, first compound 0.316 µM
[10] = second compound 0.0316 µM, first compound 1 µM
[11] = second compound 0.1 µM, first compound 0.0316 µM
[12] = second compound 0.1 µM, first compound 0.1 µM
[13] = second compound 0.1 µM, first compound 0.316 µM
[14] = second compound 0.1 µM, first compound 1 µM
[15] = second compound 0.316 µM, first compound 0.0316 µM
[16] = second compound 0.316 µM, first compound 0.1 µM
[17] = second compound 0.316 µM, first compound 0.316 µM
[18] = second compound 0.316 µM, first compound 1 µM
[19] = second compound 1 µM, first compound 0.0316 µM
[20] = second compound 1 µM, first compound 0.1 µM
[21] = second compound 1 µM, first compound 0.316 µM
[22] = second compound 1 µM, first compound 1 µM
[23] = second compound 3.16 µM, first compound 0.0316 µM
[24] = second compound 3.16 µM, first compound 0.1 µM
[25] = second compound 3.16 µM, first compound 0.316 µM
[26] = second compound 3.16 µM, first compound 1 µM
[27] = second compound 10 µM, first compound 0.0316 µM
[28] = second compound 10 µM, first compound 0.1 µM
[29] = second compound 10 µM, first compound 0.316 µM
[30] = second compound 10 µM, first compound 1 µM

C#Cc1c(F)ccc2cc(O)cc(-c3ncc4c(N5CC6CCC(C5)N6)nc(OCC56CCCN5CC(F)C6)nc4c3F)c12 (stereo unspecified) + Cc1c(S(C)(=O)=O)c(-c2cc(F)cc(N3CCN(c4ccc(NS(=O)(=O)c5ccc(NC(CCN6CCC(C(=O)OCCCP(=O)(O)O)CC6)CSc6ccccc6)c(S(=O)(=O)C(F)(F)F)c5)cc4)CC3)c2)c(-c2ccc(Cl)cc2)n1C(C)C
> 10000 nM: IC50 [1] | IC50 [2] | IC50 [3] | IC50 [4] | IC50 [5] | IC50 [6]
inactive: viability, T/C [7] 96.2% | viability, T/C [8] 90% | viability, T/C [9] 89.6% | viability, T/C [10] 92.3% | viability, T/C (second compound 0.0316 µM, first compound 3.16 µM) 98.4% | viability, T/C (second compound 0.0316 µM, first compound 10 µM) 91.8% | viability, T/C [11] 104% | viability, T/C [12] 103% | viability, T/C [13] 87.5% | viability, T/C [14] 84.1% | viability, T/C (second compound 0.1 µM, first compound 3.16 µM) 83.4% | viability, T/C (second compound 0.1 µM, first compound 10 µM) 82.5% | viability, T/C [15] 91% | viability, T/C [16] 83% | viability, T/C [17] 73.7% | viability, T/C [18] 86.7% | viability, T/C (second compound 0.316 µM, first compound 3.16 µM) 88.6% | viability, T/C (second compound 0.316 µM, first compound 10 µM) 86.5% | viability, T/C [19] 86% | viability, T/C [20] 95.9% | viability, T/C [21] 81.9% | viability, T/C [22] 82.6% | viability, T/C (second compound 1 µM, first compound 3.16 µM) 79% | viability, T/C (second compound 1 µM, first compound 10 µM) 85.7% | viability, T/C [23] 80.3% | viability, T/C [24] 77.7% | viability, T/C [25] 88.7% | viability, T/C [26] 72.5% | viability, T/C (second compound 3.16 µM, first compound 3.16 µM) 74.1% | viability, T/C (second compound 3.16 µM, first compound 10 µM) 80.5% | viability, T/C [27] 272% | viability, T/C [28] 226% | viability, T/C [29] 251% | viability, T/C [30] 292% | viability, T/C (second compound 10 µM, first compound 3.16 µM) 249% | viability, T/C (second compound 10 µM, first compound 10 µM) 196%

Cc1nc(N2CCC3(CC2)COC(C)C3N)c(CO)nc1Sc1ccnc(N)c1Cl (stereo unspecified)
529 nM and 636 nM and 1520 nM: IC50 (curve of compound)
inactive: viability, T/C (compound 0.00949 µM) 89.4% and 87.6% and 92.8% | viability, T/C (compound 0.03 µM) 89.1% and 113% and 107% | viability, T/C (compound 0.0949 µM) 86.5% and 90.9% and 95.4% | viability, T/C (compound 0.3 µM) 82.5% and 93.3% and 94.7% | viability, T/C (compound 0.949 µM) 16.5% and 27% and 73% | viability, T/C (compound 3 µM) 11.1% and 14.7% and 16.4%

O=C(c1ccc(F)c(F)c1Nc1ccc(I)cc1F)N1CC(O)([C@@H]2CCCCN2)C1 + Cc1c(S(C)(=O)=O)c(-c2cc(F)cc(N3CCN(c4ccc(NS(=O)(=O)c5ccc(NC(CCN6CCC(C(=O)OCCCP(=O)(O)O)CC6)CSc6ccccc6)c(S(=O)(=O)C(F)(F)F)c5)cc4)CC3)c2)c(-c2ccc(Cl)cc2)n1C(C)C
> 1000 nM: IC50 [1] | IC50 [2] | IC50 [3] | IC50 [4] | IC50 [5] | IC50 [6]
inactive: viability, T/C (second compound 0.0316 µM, first compound 0.00316 µM) 101% | viability, T/C (second compound 0.0316 µM, first compound 0.01 µM) 97.2% | viability, T/C [7] 88.6% | viability, T/C [8] 83.2% | viability, T/C [9] 95.2% | viability, T/C [10] 112% | viability, T/C (second compound 0.1 µM, first compound 0.00316 µM) 101% | viability, T/C (second compound 0.1 µM, first compound 0.01 µM) 89.7% | viability, T/C [11] 93.6% | viability, T/C [12] 88.8% | viability, T/C [13] 94.8% | viability, T/C [14] 90% | viability, T/C (second compound 0.316 µM, first compound 0.00316 µM) 90.7% | viability, T/C (second compound 0.316 µM, first compound 0.01 µM) 88.2% | viability, T/C [15] 81% | viability, T/C [16] 93.1% | viability, T/C [17] 96.4% | viability, T/C [18] 84.2% | viability, T/C (second compound 1 µM, first compound 0.00316 µM) 84.8% | viability, T/C (second compound 1 µM, first compound 0.01 µM) 78% | viability, T/C [19] 82.9% | viability, T/C [20] 94.5% | viability, T/C [21] 109% | viability, T/C [22] 74.3% | viability, T/C (second compound 3.16 µM, first compound 0.00316 µM) 80.9% | viability, T/C (second compound 3.16 µM, first compound 0.01 µM) 86.5% | viability, T/C [23] 80.1% | viability, T/C [24] 98.5% | viability, T/C [25] 82.6% | viability, T/C [26] 81.8% | viability, T/C (second compound 10 µM, first compound 0.00316 µM) 159% | viability, T/C (second compound 10 µM, first compound 0.01 µM) 164% | viability, T/C [27] 204% | viability, T/C [28] 182% | viability, T/C [29] 114% | viability, T/C [30] 90.8%
